According to patent US20240398828A1, “HETERO-ATOM CONTAINING COMPOUNDS AND USES THEREOF” (Kumquat Biosciences Inc., priority 2021, published 2024):
Blank lines part the entries; values can stand above or below the molecule they belong to.

Legend:
PTPN1 (i.e., PTP1B) = target: T1, PTPN1 (i.e., PTP1B) (Homo sapiens, UniProt P18031); assay: Phosphatase activity assay (DiFMUP substrate), PTP1B; type: biochemical; conditions: compounds binned ≤1 uM or >1 uM
T1 sequence (P18031 1-435): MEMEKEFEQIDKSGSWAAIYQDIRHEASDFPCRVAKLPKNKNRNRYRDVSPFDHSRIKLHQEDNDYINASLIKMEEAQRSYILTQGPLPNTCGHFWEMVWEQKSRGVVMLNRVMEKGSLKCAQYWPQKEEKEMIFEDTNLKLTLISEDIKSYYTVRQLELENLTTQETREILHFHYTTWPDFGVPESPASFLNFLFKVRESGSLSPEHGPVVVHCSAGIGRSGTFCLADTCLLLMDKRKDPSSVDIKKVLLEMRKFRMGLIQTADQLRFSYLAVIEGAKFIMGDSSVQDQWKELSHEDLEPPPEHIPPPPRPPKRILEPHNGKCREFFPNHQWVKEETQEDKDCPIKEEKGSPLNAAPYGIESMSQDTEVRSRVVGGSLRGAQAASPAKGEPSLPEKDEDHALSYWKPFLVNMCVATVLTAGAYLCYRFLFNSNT
How it was run: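 First, serially diluted inhibitor is mixed about 2 minutes with enzyme in pH 7.5 HEPES/NaCl/EDTA/DTT/Tween-20 buffer. Next, DiFMUP is added at the enzyme's Km, approximately 45 μM for PTPN2. Finally, DiFMU appearance is read continuously at room temperature and rates are fitted for IC50.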

PTPN2 (i.e., TC-PTP) = target: T2, PTPN2 (i.e., TC-PTP) (Homo sapiens, UniProt P17706); assay: Phosphatase activity assay (DiFMUP substrate), PTPN2; type: biochemical; conditions: compounds binned ≤1 uM or >1 uM
T2 sequence (P17706 1-415): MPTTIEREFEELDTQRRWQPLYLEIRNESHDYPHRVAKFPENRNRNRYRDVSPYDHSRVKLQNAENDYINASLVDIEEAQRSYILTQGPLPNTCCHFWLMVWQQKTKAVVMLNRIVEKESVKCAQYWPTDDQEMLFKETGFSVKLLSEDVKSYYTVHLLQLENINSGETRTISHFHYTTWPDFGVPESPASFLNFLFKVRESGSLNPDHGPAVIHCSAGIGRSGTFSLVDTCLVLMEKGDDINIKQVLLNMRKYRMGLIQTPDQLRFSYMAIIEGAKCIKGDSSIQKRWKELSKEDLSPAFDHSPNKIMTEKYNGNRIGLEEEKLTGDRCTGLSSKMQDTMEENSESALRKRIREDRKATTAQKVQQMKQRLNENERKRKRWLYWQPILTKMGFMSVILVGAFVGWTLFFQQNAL
How it was run: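 Enzyme (e.g. PTPN2 0.025 ng/ul) mixed about 2 min with compound at 10 serial concentrations in 50 mM HEPES pH 7.5, 150 mM NaCl, 0.5 mM EDTA, 1 mM DTT, 0.001% Tween-20 at room temperature. DiFMUP added at each enzyme's Km (about 45 μM for PTPN2). DiFMU fluorescence (ex 360/em 450 nm) followed 15-30 min; IC50 from 4-parameter fit of rates.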

IC50 (PTPN1 (i.e., PTP1B)): ≤ 1000 nM
IC50 (PTPN2 (i.e., TC-PTP)): ≤ 1000 nM
SMILES: O=C1CN(c2c(O)ccc(C3=CCN(CCC(F)F)C3)c2F)S(=O)(=O)N1 [Compound 534, 5-(3-(1-(3,3-difluoropropyl)-2,5-dihydro-1H-pyrrol-3-yl)-2-fluoro-6-hydroxyphenyl)-1,2,5-thiadiazolidin-3-one 1,1-dioxide]

IC50 (PTPN1 (i.e., PTP1B)): ≤ 1000 nM
IC50 (PTPN2 (i.e., TC-PTP)): ≤ 1000 nM
SMILES: O=C1CN(c2c(O)ccc(-c3cn(-c4cccc(C(F)(F)F)c4)cn3)c2F)S(=O)(=O)N1 [Compound 325, 5-(2-fluoro-6-hydroxy-3-(1-(3-(trifluoromethyl)phenyl)-1H-imidazol-4-yl)phenyl)-1,2,5-thiadiazolidin-3-one 1,1-dioxide]

IC50 (PTPN1 (i.e., PTP1B)): ≤ 1000 nM
IC50 (PTPN2 (i.e., TC-PTP)): ≤ 1000 nM
SMILES: O=C1CN(c2c(O)ccc(-c3ccc(NC(=O)C4CC4)cc3)c2F)S(=O)(=O)N1 [Compound 395, N-(3′-(1,1-dioxido-4-oxo-1,2,5-thiadiazolidin-2-yl)-2′-fluoro-4′-hydroxy-[1,1′-biphenyl]-4-yl)cyclopropanecarboxamide]

IC50 (PTPN1 (i.e., PTP1B)): ≤ 1000 nM
IC50 (PTPN2 (i.e., TC-PTP)): ≤ 1000 nM
SMILES: CC(C)c1cc(-c2ccc(O)c(N3CC(=O)NS3(=O)=O)c2F)[nH]n1 [Compound 379, 5-(2-fluoro-6-hydroxy-3-(3-isopropyl-1H-pyrazol-5-yl)phenyl)-1,2,5-thiadiazolidin-3-one 1,1-dioxide]

IC50 (PTPN1 (i.e., PTP1B)): ≤ 1000 nM
IC50 (PTPN2 (i.e., TC-PTP)): ≤ 1000 nM
SMILES: O=C1CN(c2c(O)ccc(-c3cn(C4CC4(F)F)[nH]c3=O)c2F)S(=O)(=O)N1 (stereo not shown) [Compound 500, 5-(3-(1-(2,2-difluorocyclopropyl)-3-oxo-2,3-dihydro-1H-pyrazol-4-yl)-2-fluoro-6-hydroxyphenyl)-1,2,5-thiadiazolidin-3-one 1,1-dioxide]

IC50 (PTPN1 (i.e., PTP1B)): ≤ 1000 nM
IC50 (PTPN2 (i.e., TC-PTP)): ≤ 1000 nM
SMILES: O=C1CN(c2c(O)ccc(-c3cn(C4CCS(=O)(=O)CC4)cn3)c2F)S(=O)(=O)N1 [Compound 412, 5-(3-(1-(1,1-dioxidotetrahydro-2H-thiopyran-4-yl)-1H-imidazol-4-yl)-2-fluoro-6-hydroxyphenyl)-1,2,5-thiadiazolidin-3-one 1,1-dioxide]

IC50 (PTPN1 (i.e., PTP1B)): ≤ 1000 nM
IC50 (PTPN2 (i.e., TC-PTP)): ≤ 1000 nM
SMILES: CC(C)CCc1ncc(-c2ccc(O)c(N3CC(=O)NS3(=O)=O)c2F)[nH]1 [Compound 334, 5-(2-fluoro-6-hydroxy-3-(2-isopentyl-1H-imidazol-5-yl)phenyl)-1,2,5-thiadiazolidin-3-one 1,1-dioxide]

IC50 (PTPN1 (i.e., PTP1B)): ≤ 1000 nM
IC50 (PTPN2 (i.e., TC-PTP)): ≤ 1000 nM
SMILES: O=C1CN(c2c(O)ccc(-c3cnn(C4(C(F)F)CC4)c3)c2F)S(=O)(=O)N1 [Compound 542, 5-(3-(1-(1-(difluoromethyl)cyclopropyl)-1H-pyrazol-4-yl)-2-fluoro-6-hydroxyphenyl)-1,2,5-thiadiazolidin-3-one 1,1-dioxide]

Further lines, the molecule ahead of its results:

SMILES: Cc1ncc(-c2ccc(O)c(N3CC(=O)NS3(=O)=O)c2F)cn1 [Compound 139, 5-(2-fluoro-6-hydroxy-3-(2-methylpyrimidin-5-yl)phenyl)-1,2,5-thiadiazolidin-3-one 1,1-dioxide]
IC50 (PTPN1 (i.e., PTP1B)): ≤ 1000 nM
IC50 (PTPN2 (i.e., TC-PTP)): ≤ 1000 nM

SMILES: O=C1CN(c2c(O)ccc(-c3c[nH]c(CCC4CC4)c3)c2F)S(=O)(=O)N1 [Compound 257, 5-(3-(5-(2-cyclopropylethyl)-1H-pyrrol-3-yl)-2-fluoro-6-hydroxyphenyl)-1,2,5-thiadiazolidin-3-one 1,1-dioxide]
IC50 (PTPN1 (i.e., PTP1B)): ≤ 1000 nM
IC50 (PTPN2 (i.e., TC-PTP)): ≤ 1000 nM

SMILES: N#C[C@H]1CC[C@H](n2cnc(-c3ccc(O)c(N4CC(=O)NS4(=O)=O)c3F)c2)CC1 [Compound 250, (1r,4r)-4-(4-(3-(1,1-dioxido-4-oxo-1,2,5-thiadiazolidin-2-yl)-2-fluoro-4-hydroxyphenyl)-1H-imidazol-1-yl)cyclohexane-1-carbonitrile]
IC50 (PTPN1 (i.e., PTP1B)): ≤ 1000 nM
IC50 (PTPN2 (i.e., TC-PTP)): > 1000 nM

SMILES: CC(C)CCNC1CCN(c2ccc(O)c(N3CC(=O)NS3(=O)=O)c2F)C1 (stereo not shown) [Compound 163, 5-(2-fluoro-6-hydroxy-3-(3-(isopentylamino)pyrrolidin-1-yl)phenyl)-1,2,5-thiadiazolidin-3-one 1,1-dioxide]
IC50 (PTPN1 (i.e., PTP1B)): ≤ 1000 nM
IC50 (PTPN2 (i.e., TC-PTP)): ≤ 1000 nM

SMILES: Cn1cc(-c2ccc(O)c(N3CC(=O)NS3(=O)=O)c2F)ccc1=O [Compound 106, 5-(2-fluoro-6-hydroxy-3-(1-methyl-6-oxo-1,6-dihydropyridin-3-yl)phenyl)-1,2,5-thiadiazolidin-3-one 1,1-dioxide]
IC50 (PTPN1 (i.e., PTP1B)): ≤ 1000 nM
IC50 (PTPN2 (i.e., TC-PTP)): ≤ 1000 nM

SMILES: O=C1CN(c2c(O)ccc(-c3ccc4cccnc4c3)c2F)S(=O)(=O)N1 [Compound 138, 5-(2-fluoro-6-hydroxy-3-(quinolin-7-yl)phenyl)-1,2,5-thiadiazolidin-3-one 1,1-dioxide]
IC50 (PTPN1 (i.e., PTP1B)): ≤ 1000 nM
IC50 (PTPN2 (i.e., TC-PTP)): ≤ 1000 nM

SMILES: C=Cc1cc(-c2ccc(O)c(N3CC(=O)NS3(=O)=O)c2F)[nH]n1 [Compound 312, 5-(2-fluoro-6-hydroxy-3-(3-vinyl-1H-pyrazol-5-yl)phenyl)-1,2,5-thiadiazolidin-3-one 1,1-dioxide]
IC50 (PTPN1 (i.e., PTP1B)): ≤ 1000 nM
IC50 (PTPN2 (i.e., TC-PTP)): ≤ 1000 nM

SMILES: CC(C)CCn1ccc(-c2ccc(O)c(N3CC(=O)NS3(=O)=O)c2F)n1 [Compound 196, 5-(2-fluoro-6-hydroxy-3-(1-isopentyl-1H-pyrazol-3-yl)phenyl)-1,2,5-thiadiazolidin-3-one 1,1-dioxide]
IC50 (PTPN1 (i.e., PTP1B)): ≤ 1000 nM
IC50 (PTPN2 (i.e., TC-PTP)): ≤ 1000 nM

SMILES: Cc1ccc(-c2ccc(O)c(N3CC(=O)NS3(=O)=O)c2F)o1 [Compound 126, 5-(2-fluoro-6-hydroxy-3-(5-methylfuran-2-yl)phenyl)-1,2,5-thiadiazolidin-3-one 1,1-dioxide]
IC50 (PTPN1 (i.e., PTP1B)): ≤ 1000 nM
IC50 (PTPN2 (i.e., TC-PTP)): ≤ 1000 nM

SMILES: O=C1CN(c2c(O)ccc(-c3cc(N4CCOCC4)n[nH]3)c2F)S(=O)(=O)N1 [Compound 286, 5-(2-fluoro-6-hydroxy-3-(3-morpholino-1H-pyrazol-5-yl)phenyl)-1,2,5-thiadiazolidin-3-one 1,1-dioxide]
IC50 (PTPN1 (i.e., PTP1B)): ≤ 1000 nM
IC50 (PTPN2 (i.e., TC-PTP)): ≤ 1000 nM

SMILES: O=C1CN(c2c(O)ccc(-c3ccc4ocnc4c3)c2F)S(=O)(=O)N1 [Compound 170, 5-(3-(benzo[d]oxazol-5-yl)-2-fluoro-6-hydroxyphenyl)-1,2,5-thiadiazolidin-3-one 1,1-dioxide]
IC50 (PTPN1 (i.e., PTP1B)): ≤ 1000 nM
IC50 (PTPN2 (i.e., TC-PTP)): ≤ 1000 nM

SMILES: Cc1cc(-c2cnn(CCC(C)C)c2)cc(N2CC(=O)NS2(=O)=O)c1O [Compound 145, 5-(2-hydroxy-5-(1-isopentyl-1H-pyrazol-4-yl)-3-methylphenyl)-1,2,5-thiadiazolidin-3-one 1,1-dioxide]
IC50 (PTPN1 (i.e., PTP1B)): > 1000 nM
IC50 (PTPN2 (i.e., TC-PTP)): > 1000 nM

SMILES: CC(N)c1cc(-c2ccc(O)c(N3CC(=O)NS3(=O)=O)c2F)[nH]n1 (stereo not shown) [Compound 297, 5-(3-(3-(1-aminoethyl)-1H-pyrazol-5-yl)-2-fluoro-6-hydroxyphenyl)-1,2,5-thiadiazolidin-3-one 1,1-dioxide]
IC50 (PTPN1 (i.e., PTP1B)): ≤ 1000 nM
IC50 (PTPN2 (i.e., TC-PTP)): ≤ 1000 nM

SMILES: NC(=O)Cn1nc(-c2ccc(O)c(N3CC(=O)NS3(=O)=O)c2F)cc1C1CC1 [Compound 229, 2-(5-cyclopropyl-3-(3-(1,1-dioxido-4-oxo-1,2,5-thiadiazolidin-2-yl)-2-fluoro-4-hydroxyphenyl)-1H-pyrazol-1-yl)acetamide]
IC50 (PTPN1 (i.e., PTP1B)): ≤ 1000 nM
IC50 (PTPN2 (i.e., TC-PTP)): ≤ 1000 nM

SMILES: CN1CCc2cc(-c3ccc(O)c(N4CC(=O)NS4(=O)=O)c3F)ccc2C1 [Compound 109, 5-(2-fluoro-6-hydroxy-3-(2-methyl-1,2,3,4-tetrahydroisoquinolin-6-yl)phenyl)-1,2,5-thiadiazolidin-3-one 1,1-dioxide]
IC50 (PTPN1 (i.e., PTP1B)): ≤ 1000 nM
IC50 (PTPN2 (i.e., TC-PTP)): ≤ 1000 nM
